Laboratory results: patent US20260258020A1, “CRYSTAL FORM OF PIPERAZINE AMIDE DERIVATIVE, PREPARATION METHOD THEREFOR AND USE THEREOF” (ZHEJIANG HISUN PHARMACEUTICAL CO., LTD., priority 2022, published 2026)

Key:
[1] = Stability test (purity and XRPD pattern after 30 days storage); format: physicochemical; details: for stability compared to the amorphous form: conclusion from Table 6
Procedure: X-ray powder diffraction instrument and test conditions involved in the present disclosure: the model of the X-ray diffraction instrument was Rigaku MiniFlex-600 Cu target; the operation method included a scanning speed of 10°/min and scanning step width of 0.01°.
High-performance liquid chromatography (HPLC) test conditions involved in the present disclosure: the model of the liquid chromatograph was Agilent 1260; the chromatographic column was Welch XB C-18 250 mm*4.6 mm 3 μm; the detection wavelength was 260 nm; and the column temperature was 40° C.
The amorphous form of compound represented by Formula I prepared in the described preparation examples, the crystal form A of the compound represented by Formula I prepared in Example 1, the crystal form B of the compound represented by Formula I prepared in Example 9, the crystal form C of the compound represented by Formula I prepared in Example 12, the crystal form D of the compound represented by Formula I prepared in Example 17, and the crystal form E of the compound represented by Formula I prepared in Example 20 were placed under various conditions: 75% RH, 92.5% RH, 40° C., 60° C., and illumination for 30 days, the X-ray powder diffraction pattern and purity of each crystal form were determined, and the specific results are shown in Table 6.

Hygroscopicity test = format: physicochemical; details: for hygroscopicity: 75% RH and 25° C. for 24 h; for hygroscopicity compared to the amorphous form: conclusion from Table 9
Text: (§1) The amorphous form of the compound represented by Formula I prepared in Preparation Example, the crystal form A of the compound represented by Formula I prepared in Example 1, the crystal form B of the compound represented by Formula I prepared in Example 9, the crystal form C of the compound represented by Formula I prepared in Example 12, the crystal form D of the compound represented by Formula I prepared in Example 17, and the crystal form E of the compound represented by Formula I prepared in Example 20 were placed in an environment of 75% RH and 25° C. for 24 h and then each was weighed to calculate the hygroscopicity.

Granularity test = format: physicochemical
Text: as §1, with “measured for granularity, and the specific results are shown” for “placed”, “Table 7 below: […]” for “an environment of 75% RH and 25° C. for 24 h and then each was weighed to calculate the hygroscopicity.”

[2] = Fluidity test (angle of repose); format: physicochemical; details: for fluidity compared to the amorphous form: conclusion from Table 8
Text: as §1, with “measured for angle of repose, and the specific results are shown” for “placed”, “Table 8 below: […]” for “an environment of 75% RH and 25° C. for 24 h and then each was weighed to calculate the hygroscopicity.”

RET kinase = RET kinase (Homo sapiens, UniProt P07949); details: stated for WO2020/207419A1; cited from earlier work
Chain of RET kinase (P07949 29-1114): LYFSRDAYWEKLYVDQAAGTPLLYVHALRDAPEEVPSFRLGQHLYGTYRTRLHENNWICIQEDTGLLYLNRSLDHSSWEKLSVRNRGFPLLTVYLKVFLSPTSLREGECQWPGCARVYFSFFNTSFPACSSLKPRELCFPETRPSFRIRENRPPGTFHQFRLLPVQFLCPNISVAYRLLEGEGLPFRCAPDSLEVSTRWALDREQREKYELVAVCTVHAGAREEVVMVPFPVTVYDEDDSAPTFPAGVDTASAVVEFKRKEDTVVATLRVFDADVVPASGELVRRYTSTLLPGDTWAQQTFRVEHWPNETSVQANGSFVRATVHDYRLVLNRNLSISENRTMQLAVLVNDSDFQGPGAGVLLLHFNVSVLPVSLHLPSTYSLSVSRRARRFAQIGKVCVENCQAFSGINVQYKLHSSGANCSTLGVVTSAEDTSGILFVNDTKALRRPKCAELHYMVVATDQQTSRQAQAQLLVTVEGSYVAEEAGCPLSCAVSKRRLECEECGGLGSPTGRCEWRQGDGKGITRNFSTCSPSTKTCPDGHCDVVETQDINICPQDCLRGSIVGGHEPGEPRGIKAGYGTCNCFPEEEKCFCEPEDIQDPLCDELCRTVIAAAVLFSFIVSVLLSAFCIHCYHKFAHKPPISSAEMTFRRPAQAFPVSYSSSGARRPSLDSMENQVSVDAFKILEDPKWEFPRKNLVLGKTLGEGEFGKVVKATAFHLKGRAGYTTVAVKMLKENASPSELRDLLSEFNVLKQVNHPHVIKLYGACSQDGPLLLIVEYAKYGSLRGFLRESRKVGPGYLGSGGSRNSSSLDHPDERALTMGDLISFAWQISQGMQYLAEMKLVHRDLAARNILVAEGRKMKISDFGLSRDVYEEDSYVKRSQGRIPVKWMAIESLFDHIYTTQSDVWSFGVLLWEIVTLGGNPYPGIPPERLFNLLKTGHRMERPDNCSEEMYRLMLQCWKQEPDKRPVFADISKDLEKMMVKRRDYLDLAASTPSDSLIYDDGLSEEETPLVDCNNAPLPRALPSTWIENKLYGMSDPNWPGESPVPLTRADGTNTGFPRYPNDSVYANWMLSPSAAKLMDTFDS

SMILES	purity ([1]; day 0)	purity ([1]; day 30 at 40° C.)	purity ([1]; day 30 at 60° C.)	purity ([1]; day 30 under 75% RH)	purity ([1]; day 30 under 92.5% RH)	purity ([1]; day 30 under illumination)	hygroscopicity (Hygroscopicity test) [%]	D50 (granularity) (Granularity test) [μm]	D90 (granularity) (Granularity test) [μm]	angle of repose ([2]; measurement 1) [°]	angle of repose ([2]; measurement 2) [°]	angle of repose ([2]; measurement 3)	stability compared to the amorphous form [1]	hygroscopicity compared to the amorphous form (Hygroscopicity test)	fluidity compared to the amorphous form [2]	further results
Cc1cc(Nc2cc(C)[nH]n2)nc(N2CC3CCC(C2)N3C(=O)c2ccc(-n3cc(F)cn3)nn2)n1 [amorphous form, (6-(4-fluoro-1H-pyrazol-1-yl)pyridazin-3-yl)(3-(4-methyl-6-((5-methyl-1H-pyrazol-3-yl)amino)pyrimidin-2-yl) 3,8-diazabicyclo[3.2.1]octane-8-yl) methanone, reference compound]	96.77	96.17 (its	95.98 (its	95.94	95.23	94.37	0.45	3.52	18.45	43.8	44.3	43.4°				X-ray powder diffraction pattern after storage ([1]; day 30 at 40° C.): changes); X-ray powder diffraction pattern after storage ([1]; day 30 at 60° C.): changes); granularity compared to crystal forms A, B, C, D and E (Granularity test; conclusion from Table 7): significantly smaller; D50 of amorphous form relative to the crystal form D50 (Granularity test; versus crystal forms A-E): not more than 12%; D90 of amorphous form relative to the crystal form D90 (Granularity test; versus crystal forms A-E): not more than 25%
Cc1cc(Nc2cc(C)[nH]n2)nc(N2CC3CCC(C2)N3C(=O)c2ccc(-n3cc(F)cn3)nn2)n1 [compound represented by formula I, (6-(4-fluoro-1H-pyrazol-1-yl)pyridazin-3-yl)(3-(4-methyl-6-((5-methyl-1H-pyrazol-3-yl)amino)pyrimidin-2-yl)-3,8-diazabicyclo[3.2.1]octan-8-yl) methanone]																effect of inhibiting RET kinase (RET kinase): good effect of inhibiting RET kinase
Cc1cc(Nc2cc(C)[nH]n2)nc(N2CC3CCC(C2)N3C(=O)c2ccc(-n3cc(F)cn3)nn2)n1 [crystal form A, (6-(4-fluoro-1H-pyrazol-1-yl)pyridazin-3-yl)(3-(4-methyl-6-((5-methyl-1H-pyrazol-3-yl)amino)pyrimidin-2-yl)-3,8-diazabicyclo[3.2.1]octan-8-yl) methanone]	99.85	99.80	99.77	99.67	99.48	98.88	0.02	38.62	95.11	32.5	31.9	32.2°	better stability	significantly better	significantly superior	
Cc1cc(Nc2cc(C)[nH]n2)nc(N2CC3CCC(C2)N3C(=O)c2ccc(-n3cc(F)cn3)nn2)n1 [crystal form B, (6-(4-fluoro-1H-pyrazol-1-yl)pyridazin-3-yl)(3-(4-methyl-6-((5-methyl-1H-pyrazol-3-yl)amino)pyrimidin-2-yl)-3,8-diazabicyclo[3.2.1]octan-8-yl) methanone]	99.80	99.68	99.62	99.52	99.23	98.56	0.05	32.53	86.77	33.4	34.1	34.2°	better stability	significantly better	significantly superior	
Cc1cc(Nc2cc(C)[nH]n2)nc(N2CC3CCC(C2)N3C(=O)c2ccc(-n3cc(F)cn3)nn2)n1 [crystal form C, (6-(4-fluoro-1H-pyrazol-1-yl)pyridazin-3-yl)(3-(4-methyl-6-((5-methyl-1H-pyrazol-3-yl)amino)pyrimidin-2-yl)-3,8-diazabicyclo[3.2.1]octan-8-yl) methanone]	99.75	99.51	99.38	99.45	99.08	98.22	0.06	31.58	79.47	33.8	33.9	33.2.°	better stability	significantly better	significantly superior	
Cc1cc(Nc2cc(C)[nH]n2)nc(N2CC3CCC(C2)N3C(=O)c2ccc(-n3cc(F)cn3)nn2)n1 [crystal form D, (6-(4-fluoro-1H-pyrazol-1-yl)pyridazin-3-yl)(3-(4-methyl-6-((5-methyl-1H-pyrazol-3-yl)amino)pyrimidin-2-yl)-3,8-diazabicyclo[3.2.1]octan-8-yl) methanone]	99.60	99.42	99.33	99.35	99.01	98.23	0.08	33.64	83.56	33.0	33.8	33.3°	better stability	significantly better	significantly superior	
Cc1cc(Nc2cc(C)[nH]n2)nc(N2CC3CCC(C2)N3C(=O)c2ccc(-n3cc(F)cn3)nn2)n1 [crystal form E, (6-(4-fluoro-1H-pyrazol-1-yl)pyridazin-3-yl)(3-(4-methyl-6-((5-methyl-1H-pyrazol-3-yl)amino)pyrimidin-2-yl)-3,8-diazabicyclo[3.2.1]octan-8-yl) methanone]	99.76	99.70	99.65	99.60	99.50	98.65	0.05	30.36	75.89	34.2	35.1	34.8°	better stability	significantly better	significantly superior	
